Experimental data from patent US20120010075A1 (priority 2009, published 2012).

tested on: Leptosphaeria nodorum (LEPTNO); test: In vitro fungitoxicity of hydrazones with and without copper towards Leptosphaeria nodorum (Example 26); format: cell-based; details: Parastagonospora nodorum, 72 h, compound 0.05 μg/mL, copper-minus medium, 72 h at 25° C.; read-out: LEPTNO % Inhn. Minus Copper Observed

Point of comparison: `O=C(N/N=C/c1cc(Cl)cc(Cl)c1O)c1ccccc1F` [Example 101], inhibition of growth at 0.05 µg/mL 7.8%. Against it:
- O=C(N/N=C/c1ccccc1O)c1ccccc1O [Example 1] — lower, 0.7%
- CNc1ccccc1C(=O)N/N=C/c1ccccc1O [Example 3] — lower, 2.3%
- O=C(CCc1cc(Br)c(O)c(Br)c1)N/N=C/c1cc(Cl)cc(Cl)c1O [Example 5] — lower, 4.8%
- O=C(N/N=C/c1cc(Cl)cc(Cl)c1O)c1ccc2c(c1)OCO2 [Example 6] — lower, 3.9%
- CCOc1ccc(C(=O)N/N=C/c2ccccc2O)cc1 [Example 21] — lower, 0.1%
- O=C(N/N=C/c1ccccc1O)c1cccc(C(F)(F)F)c1 [Example 61] — lower, 3.8%
- O=C(N/N=C/c1cc(Cl)cc(Cl)c1O)c1ccc(-c2ccccc2)cc1 [Example 74] — lower, 3%
- Nc1ccccc1C(=O)N/N=C/c1cc(Cl)cc(Cl)c1O [Example 91] — lower, 0%
- O=C(N/N=C/c1cc(Br)cc(Br)c1O)c1cccc(F)c1 [Example 119] — lower, 2.2%
- O=C(Cc1ccc(Cl)cc1)N/N=C/c1cc(Cl)cc(Cl)c1O [Example 123] — lower, 7.5%
- O=C(Cc1ccccc1)N/N=C/c1cc(Br)cc(Br)c1O [Example 124] — lower, 0%
- O=C(Cc1ccccc1)N/N=C/c1cc(Cl)cc(Cl)c1O [Example 125] — lower, 2.4%
- C/C(=N\NC(=O)CCc1ccccc1)c1ccccc1O [Example 131] — lower, 0%
- C=CCc1cccc(/C=N/NC(=O)c2ccccc2)c1O [Example 143] — lower, 2.1%
- O=C(N/N=C/c1cc(I)cc(I)c1O)c1ccccc1 [Example 146] — lower, 0%
- O=C(N/N=C/c1ccccc1O)c1cccc(Br)c1 [Example 182] — lower, 0%

same assay, conditions: compound 0.05 μg/mL, copper-plus medium (CuCl2.2H2O), 72 h at 25° C.

Point of comparison: `C=CCc1cccc(/C=N/NC(=O)c2ccccc2)c1O` [Example 143], “LEPTNO % Inhn. Plus Copper Observed” value 98.2%. Against it:
- O=C(N/N=C/c1ccccc1O)c1ccccc1O [Example 1] — lower, 96.2%
- CNc1ccccc1C(=O)N/N=C/c1ccccc1O [Example 3] — lower, 93.0%
- O=C(CCc1cc(Br)c(O)c(Br)c1)N/N=C/c1cc(Cl)cc(Cl)c1O [Example 5] — lower, 56.1%
- O=C(N/N=C/c1cc(Cl)cc(Cl)c1O)c1ccc2c(c1)OCO2 [Example 6] — lower, 96.4%
- CCOc1ccc(C(=O)N/N=C/c2ccccc2O)cc1 [Example 21] — lower, 94.1%
- O=C(N/N=C/c1ccccc1O)c1cccc(C(F)(F)F)c1 [Example 61] — lower, 93.6%
- O=C(N/N=C/c1cc(Cl)cc(Cl)c1O)c1ccc(-c2ccccc2)cc1 [Example 74] — lower, 95.7%
- Nc1ccccc1C(=O)N/N=C/c1cc(Cl)cc(Cl)c1O [Example 91] — lower, 79.3%
- O=C(N/N=C/c1cc(Cl)cc(Cl)c1O)c1ccccc1F [Example 101] — lower, 97.3%
- O=C(N/N=C/c1cc(Br)cc(Br)c1O)c1cccc(F)c1 [Example 119] — lower, 95.7%
- O=C(Cc1ccc(Cl)cc1)N/N=C/c1cc(Cl)cc(Cl)c1O [Example 123] — lower, 95.5%
- O=C(Cc1ccccc1)N/N=C/c1cc(Br)cc(Br)c1O [Example 124] — lower, 88.2%
- O=C(Cc1ccccc1)N/N=C/c1cc(Cl)cc(Cl)c1O [Example 125] — lower, 94.4%
- C/C(=N\NC(=O)CCc1ccccc1)c1ccccc1O [Example 131] — lower, 96.8%
- O=C(N/N=C/c1cc(I)cc(I)c1O)c1ccccc1 [Example 146] — lower, 96.2%
- O=C(N/N=C/c1ccccc1O)c1cccc(Br)c1 [Example 182] — lower, 97.6%

tested on: Phytophthora infestans; test: not given; format: in vivo, Phytophthora infestans on tomato; details: hydrazone 50 ppm + 50 μM CuCl2.2H2O, applied 24 h before inoculation, assessed 7 days after inoculation, tomato

Point of comparison: `O=C(Cc1ccccc1)N/N=C/c1cc(Br)cc(Br)c1O` [Example 124], “TLB % Control” value 23.0%. Against it:
- O=C(N/N=C/c1ccccc1O)c1ccccc1O [Example 1] — higher, 64.0%
- CNc1ccccc1C(=O)N/N=C/c1ccccc1O [Example 3] — higher, 47.0%
- O=C(CCc1cc(Br)c(O)c(Br)c1)N/N=C/c1cc(Cl)cc(Cl)c1O [Example 5] — lower, 22.0%
- O=C(N/N=C/c1cc(Cl)cc(Cl)c1O)c1ccc2c(c1)OCO2 [Example 6] — higher, 88.1%
- CCOc1ccc(C(=O)N/N=C/c2ccccc2O)cc1 [Example 21] — higher, 65.5%
- O=C(N/N=C/c1ccccc1O)c1cccc(C(F)(F)F)c1 [Example 61] — higher, 60.0%
- O=C(N/N=C/c1cc(Cl)cc(Cl)c1O)c1ccc(-c2ccccc2)cc1 [Example 74] — higher, 63.6%
- Nc1ccccc1C(=O)N/N=C/c1cc(Cl)cc(Cl)c1O [Example 91] — lower, 18.0%
- O=C(N/N=C/c1cc(Cl)cc(Cl)c1O)c1ccccc1F [Example 101] — higher, 85.3%
- O=C(N/N=C/c1cc(Br)cc(Br)c1O)c1cccc(F)c1 [Example 119] — higher, 91.9%
- O=C(Cc1ccc(Cl)cc1)N/N=C/c1cc(Cl)cc(Cl)c1O [Example 123] — higher, 71.0%
- O=C(Cc1ccccc1)N/N=C/c1cc(Cl)cc(Cl)c1O [Example 125] — higher, 87.0%
- C/C(=N\NC(=O)CCc1ccccc1)c1ccccc1O [Example 131] — higher, 62.0%
- C=CCc1cccc(/C=N/NC(=O)c2ccccc2)c1O [Example 143] — higher, 64.4%
- O=C(N/N=C/c1cc(I)cc(I)c1O)c1ccccc1 [Example 146] — higher, 71.2%
- O=C(N/N=C/c1ccccc1O)c1cccc(Br)c1 [Example 182] — higher, 74.6%

tested on: Phytophthora capsici; test: In vitro fungitoxicity of hydrazones with and without copper towards Phytophthora capsici (Example 28, Table 3); format: cell-based; details: 0.039 μg/mL; copper-plus AS medium (CuCl2, 50 μM); 48 h

Point of comparison: `O=C(Cc1ccccc1)N/N=C/c1cc(Br)cc(Br)c1O` [Example 124], “% Inhn Plus copper Observed” value 89.7%. Against it:
- O=C(N/N=C/c1ccccc1O)c1ccccc1O [Example 1] — lower, 87.2%
- CNc1ccccc1C(=O)N/N=C/c1ccccc1O [Example 3] — lower, 88.5%
- O=C(CCc1cc(Br)c(O)c(Br)c1)N/N=C/c1cc(Cl)cc(Cl)c1O [Example 5] — higher, 93.9%
- O=C(N/N=C/c1cc(Cl)cc(Cl)c1O)c1ccc2c(c1)OCO2 [Example 6] — higher, 95.8%
- CCOc1ccc(C(=O)N/N=C/c2ccccc2O)cc1 [Example 21] — higher, 90.0%
- O=C(N/N=C/c1ccccc1O)c1cccc(C(F)(F)F)c1 [Example 61] — higher, 95.6%
- Nc1ccccc1C(=O)N/N=C/c1cc(Cl)cc(Cl)c1O [Example 91] — higher, 93.2%
- O=C(N/N=C/c1cc(Cl)cc(Cl)c1O)c1ccccc1F [Example 101] — lower, 88.2%
- O=C(N/N=C/c1cc(Br)cc(Br)c1O)c1cccc(F)c1 [Example 119] — higher, 95.1%
- O=C(Cc1ccc(Cl)cc1)N/N=C/c1cc(Cl)cc(Cl)c1O [Example 123] — higher, 94.8%
- O=C(Cc1ccccc1)N/N=C/c1cc(Cl)cc(Cl)c1O [Example 125] — lower, 89.4%
- C/C(=N\NC(=O)CCc1ccccc1)c1ccccc1O [Example 131] — higher, 93.7%
- C=CCc1cccc(/C=N/NC(=O)c2ccccc2)c1O [Example 143] — higher, 94.5%
- O=C(N/N=C/c1cc(I)cc(I)c1O)c1ccccc1 [Example 146] — higher, 91.4%
- O=C(N/N=C/c1ccccc1O)c1cccc(Br)c1 [Example 182] — higher, 90.9%

same assay, conditions: 5 μg/mL; copper-plus AS medium (CuCl2, 50 μM); 48 h

In the case of `O=C(N/N=C/c1cc(Cl)cc(Cl)c1O)c1ccc(-c2ccccc2)cc1` [Example 74], the “% Inhn Plus copper Observed” value is reported as 89.4%.

same assay, conditions: Phytophthora capsici; 0.039 μg/mL; copper-minus AS medium; 48 h; read-out: % Inhn Minus copper Observed

Point of comparison: `O=C(N/N=C/c1ccccc1O)c1ccccc1O` [Example 1], inhibition of growth at 0.039 µg/mL 9.7%. Against it:
- CNc1ccccc1C(=O)N/N=C/c1ccccc1O [Example 3] — lower, 0%
- O=C(CCc1cc(Br)c(O)c(Br)c1)N/N=C/c1cc(Cl)cc(Cl)c1O [Example 5] — higher, 18.6%
- O=C(N/N=C/c1cc(Cl)cc(Cl)c1O)c1ccc2c(c1)OCO2 [Example 6] — higher, 28.8%
- CCOc1ccc(C(=O)N/N=C/c2ccccc2O)cc1 [Example 21] — lower, 0%
- O=C(N/N=C/c1ccccc1O)c1cccc(C(F)(F)F)c1 [Example 61] — higher, 17.6%
- Nc1ccccc1C(=O)N/N=C/c1cc(Cl)cc(Cl)c1O [Example 91] — higher, 52.1%
- O=C(N/N=C/c1cc(Cl)cc(Cl)c1O)c1ccccc1F [Example 101] — higher, 70%
- O=C(N/N=C/c1cc(Br)cc(Br)c1O)c1cccc(F)c1 [Example 119] — higher, 37.9%
- O=C(Cc1ccc(Cl)cc1)N/N=C/c1cc(Cl)cc(Cl)c1O [Example 123] — higher, 16.3%
- O=C(Cc1ccccc1)N/N=C/c1cc(Br)cc(Br)c1O [Example 124] — higher, 25%
- O=C(Cc1ccccc1)N/N=C/c1cc(Cl)cc(Cl)c1O [Example 125] — higher, 66.6%
- C/C(=N\NC(=O)CCc1ccccc1)c1ccccc1O [Example 131] — lower, 5.6%
- C=CCc1cccc(/C=N/NC(=O)c2ccccc2)c1O [Example 143] — lower, 6%
- O=C(N/N=C/c1cc(I)cc(I)c1O)c1ccccc1 [Example 146] — higher, 11.8%
- O=C(N/N=C/c1ccccc1O)c1cccc(Br)c1 [Example 182] — higher, 25.9%

same assay, conditions: Phytophthora capsici; 5 μg/mL; copper-minus AS medium; 48 h; read-out: % Inhn Minus copper Observed

For `O=C(N/N=C/c1cc(Cl)cc(Cl)c1O)c1ccc(-c2ccccc2)cc1` [Example 74], the inhibition of growth at 5 µg/mL was 17.2%.
